Test results published in US12077503B2, “Substituted cyclic amides and their use as herbicides” (FMC CORPORATION, priority 2015, dated 2024).

Experiments:
Type in all cases: in vivo
[1] = test system: ducksalad (Heteranthera limosa); test: Test B flooded paddy test; details: Heteranthera limosa, Flood, 250 g ai/ha; scale of 0 to 100 where 0 is no effect and 100 is complete control; read-out: Ducksalad plant response rating
Procedure, shortened: (§1)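 2-leaf plants; pots flooded 3 cm over soil; cpd added to paddy water; depth held; greenhouse 13–15 d; visual rating vs controls, 0 = no effect, 100 = complete control.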

rice (Oryra sativa) = test: Test B flooded paddy test; details: Oryza sativa, Flood, 250 g ai/ha; scale of 0 to 100 where 0 is no effect and 100 is complete control; read-out: Rice plant response rating
Procedure, shortened: as §1

[2] = test system: barnyardgrass (Echinochloa crus-galli); test: Test B flooded paddy test; details: Echinochloa crus-galli, Flood, 250 g ai/ha; scale of 0 to 100 where 0 is no effect and 100 is complete control; read-out: Barnyardgrass plant response rating
Procedure, shortened: as §1

[3] = test system: sedge, umbrella (small-flower umbrella sedge, Cyperus difformis); test: Test B flooded paddy test; details: Cyperus difformis, Flood, 250 g ai/ha; scale of 0 to 100 where 0 is no effect and 100 is complete control; read-out: Sedge, Umbrella plant response rating
Procedure, shortened: as §1

[4] = test system: wheat (Triticum aestivum); test: Test A postemergence; details: Triticum aestivum, post-emergence, 240 h, 125 g ai/ha, Postemergence; visual injury after approximately 10 d; 0 to 100 scale where 0 is no effect and 100 is complete control; read-out: Plant response rating, Wheat
Procedure, shortened: (§2)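 Seeds sprayed preemergence with a directed soil spray, or plants at 2 to 10 cm height and one- to two-leaf stage sprayed postemergence, with test chemicals in a non-phytotoxic solvent mixture containing surfactant, in loam soil–sand blend. Injury rated visually against untreated controls after about 10 d in greenhouse, 0 (no effect) to 100 (complete control).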

[5] = test system: pigweed (Amaranthus retroflexus); test: Test A postemergence; details: Amaranthus retroflexus, post-emergence, 240 h, 125 g ai/ha, Postemergence; visual injury after approximately 10 d; 0 to 100 scale where 0 is no effect and 100 is complete control; read-out: Plant response rating, Pigweed
Procedure, shortened: as §2

[6] = test system: Galium (catchweed bedstraw, Galium aparine); test: Test A postemergence; details: Galium, post-emergence, 240 h, 125 g ai/ha, Postemergence; visual injury after approximately 10 d; 0 to 100 scale where 0 is no effect and 100 is complete control; read-out: Plant response rating, Galium
Procedure, shortened: as §2

[7] = test system: ryegrass, Italian (Italian ryegrass, Lolium multiflorum); test: Test A postemergence; details: Lolium multiflorum, post-emergence, 240 h, 125 g ai/ha, Postemergence; visual injury after approximately 10 d; 0 to 100 scale where 0 is no effect and 100 is complete control; read-out: Plant response rating, Ryegrass, Italian
Procedure, shortened: as §2

[8] = test system: giant foxtail (Setaria faberii); test: Test A postemergence; details: Setaria faberi, post-emergence, 240 h, 125 g ai/ha, Postemergence; visual injury after approximately 10 d; 0 to 100 scale where 0 is no effect and 100 is complete control; read-out: Plant response rating, Foxtail, Giant
Procedure, shortened: as §2

[9] = test system: barnyardgrass (Echinochloa crus-galli); test: Test A postemergence; details: Echinochloa crus-galli, post-emergence, 240 h, 125 g ai/ha, Postemergence; visual injury after approximately 10 d; 0 to 100 scale where 0 is no effect and 100 is complete control; read-out: Plant response rating, Barnyardgrass
Procedure, shortened: as §2

corn (Zea mays) = test: Test A postemergence; details: Zea mays, post-emergence, 240 h, 125 g ai/ha, Postemergence; visual injury after approximately 10 d; 0 to 100 scale where 0 is no effect and 100 is complete control
Procedure, shortened: as §2

[10] = test system: blackgrass (Alopecurus myosuroides); test: Test A postemergence; details: Alopecurus myosuroides, post-emergence, 240 h, 125 g ai/ha, Postemergence; visual injury after approximately 10 d; 0 to 100 scale where 0 is no effect and 100 is complete control; read-out: Plant response rating, Blackgrass
Procedure, shortened: as §2

Kochia (Kochia scoparia) [11] = test: Test A postemergence; details: Bassia scoparia, post-emergence, 240 h, 125 g ai/ha, Postemergence; visual injury after approximately 10 d; 0 to 100 scale where 0 is no effect and 100 is complete control; read-out: Plant response rating, Kochia
Procedure, shortened: as §2

[12] = test system: ragweed (common ragweed, Ambrosia elatior); test: Test A postemergence; details: Ambrosia artemisiifolia, post-emergence, 240 h, 125 g ai/ha, Postemergence; visual injury after approximately 10 d; 0 to 100 scale where 0 is no effect and 100 is complete control; read-out: Plant response rating, Ragweed
Procedure, shortened: as §2

[13] = test system: pigweed (Amaranthus retroflexus); test: Test A preemergence; details: Amaranthus retroflexus, pre-emergence, 240 h
[14] = test system: ryegrass, Italian (Italian ryegrass, Lolium multiflorum); test: Test A preemergence; details: Lolium multiflorum, pre-emergence, 240 h
Procedure, shortened: as §2

[15] = test system: giant foxtail (Setaria faberii); test: Test A preemergence; details: Setaria faberi, pre-emergence, 240 h
Procedure, shortened: as §2

[16] = test system: barnyardgrass (Echinochloa crus-galli); test: Test A preemergence; details: Echinochloa crus-galli, pre-emergence, 240 h
Procedure, shortened: as §2

Kochia (Kochia scoparia) [17] = test: Test A preemergence; details: Bassia scoparia, pre-emergence, 240 h
Procedure, shortened: as §2

[18] = test system: ragweed (common ragweed, Ambrosia elatior); test: Test A preemergence; details: Ambrosia artemisiifolia, pre-emergence, 240 h
Procedure, shortened: as §2

## CCc1cc(CC)cc([C@H]2CNC(=O)[C@@H]2C(=O)Nc2ccccc2C(F)(F)F)c1 [Compound 969]
[1]
  pest or weed control at 250 g/ha: 0%
Rice (Oryra sativa)
  pest or weed control at 250 g/ha: 0%
[2]
  pest or weed control at 250 g/ha: 0%
[3]
  pest or weed control at 250 g/ha: 0%
[4]
  plant injury at 125 g/ha: 30%
[5]
  pest or weed control at 125 g/ha: 0%
[6]
  pest or weed control at 125 g/ha: 20%
[7]
  pest or weed control at 125 g/ha: 20%
[8]
  pest or weed control at 125 g/ha: 50%
[9]
  pest or weed control at 125 g/ha: 50%
Corn (Zea mays)
  Corn plant response rating (crop injury, 0 = no effect, 100 = complete kill) at 125 g/ha: 50%
[10]
  pest or weed control at 125 g/ha: 0%
Kochia (Kochia scoparia) [11]
  pest or weed control at 125 g/ha: 0%
[12]
  pest or weed control at 125 g/ha: 0%
[13]; 125 g ai/ha, Preemergence, visual injury rating after approximately 10 d, read-out: Pigweed plant response rating (0 to 100 scale, 0 is no effect, 100 is complete control)
  pest or weed control at 125 g/ha: 0%
[13]; 500 g ai/ha, preemergence, visual injury rating about 10 d after treatment, 0 to 100 scale (0 no effect, 100 complete control), read-out: Pigweed plant response rating
  pest or weed control at 500 g/ha: 0%
[14]; 125 g ai/ha, Preemergence, visual injury rating after approximately 10 d, read-out: Ryegrass, Italian plant response rating (0 to 100 scale, 0 is no effect, 100 is complete control)
  pest or weed control at 125 g/ha: 40%
[14]; 500 g ai/ha, preemergence, visual injury rating about 10 d after treatment, 0 to 100 scale (0 no effect, 100 complete control), read-out: Ryegrass, Italian plant response rating
  pest or weed control at 500 g/ha: 30%
[15]; 125 g ai/ha, Preemergence, visual injury rating after approximately 10 d, read-out: Foxtail, Giant plant response rating (0 to 100 scale, 0 is no effect, 100 is complete control)
  pest or weed control at 125 g/ha: 90%
[15]; 500 g ai/ha, preemergence, visual injury rating about 10 d after treatment, 0 to 100 scale (0 no effect, 100 complete control), read-out: Foxtail, Giant plant response rating
  pest or weed control at 500 g/ha: 90%
[16]; 125 g ai/ha, Preemergence, visual injury rating after approximately 10 d, read-out: Barnyardgrass plant response rating (0 to 100 scale, 0 is no effect, 100 is complete control)
  pest or weed control at 125 g/ha: 50%
[16]; 500 g ai/ha, preemergence, visual injury rating about 10 d after treatment, 0 to 100 scale (0 no effect, 100 complete control), read-out: Barnyardgrass plant response rating
  pest or weed control at 500 g/ha: 80%
Kochia (Kochia scoparia) [17]; 125 g ai/ha, Preemergence, visual injury rating after approximately 10 d, read-out: Kochia plant response rating (0 to 100 scale, 0 is no effect, 100 is complete control)
  pest or weed control at 125 g/ha: 0%
Kochia (Kochia scoparia) [17]; 500 g ai/ha, preemergence, visual injury rating about 10 d after treatment, 0 to 100 scale (0 no effect, 100 complete control), read-out: Kochia plant response rating
  pest or weed control at 500 g/ha: 0%
[18]; 125 g ai/ha, Preemergence, visual injury rating after approximately 10 d, read-out: Ragweed plant response rating (0 to 100 scale, 0 is no effect, 100 is complete control)
  pest or weed control at 125 g/ha: 0%
[18]; 500 g ai/ha, preemergence, visual injury rating about 10 d after treatment, 0 to 100 scale (0 no effect, 100 complete control), read-out: Ragweed plant response rating
  pest or weed control at 500 g/ha: 0%
